From patent US9850183B2, “Conjugates derived from non-steroidal anti-inflammatory drugs and methods of use thereof in imaging” (Reiley Pharmaceuticals, Inc., priority 2014, dated 2017) come the findings set out here.

Read-outs that look alike come from different tables or passages of the source. Some results are limits rather than exact numbers.

The target of one assay is T1, human COX-2 (Homo sapiens, UniProt P35354).
T1 construct: purchased Cayman Chemical Co., Ann Arbor, Mich., USA 701080
T1 sequence (P35354 18-604): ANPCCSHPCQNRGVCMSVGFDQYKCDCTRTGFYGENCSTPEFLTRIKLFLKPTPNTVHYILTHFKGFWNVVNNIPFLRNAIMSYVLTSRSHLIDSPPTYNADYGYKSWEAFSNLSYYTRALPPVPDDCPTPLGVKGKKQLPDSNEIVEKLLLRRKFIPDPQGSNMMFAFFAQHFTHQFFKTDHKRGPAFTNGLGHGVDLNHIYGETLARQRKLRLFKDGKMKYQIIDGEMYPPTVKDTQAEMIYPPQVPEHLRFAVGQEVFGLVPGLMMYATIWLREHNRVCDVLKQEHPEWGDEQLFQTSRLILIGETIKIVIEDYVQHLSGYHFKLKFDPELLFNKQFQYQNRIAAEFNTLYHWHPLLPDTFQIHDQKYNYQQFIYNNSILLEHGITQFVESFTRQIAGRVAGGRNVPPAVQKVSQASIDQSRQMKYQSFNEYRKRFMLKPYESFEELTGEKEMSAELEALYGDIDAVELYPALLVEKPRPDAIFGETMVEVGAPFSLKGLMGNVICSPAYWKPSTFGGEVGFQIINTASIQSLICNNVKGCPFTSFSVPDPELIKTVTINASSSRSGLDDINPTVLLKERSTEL
Description: COX-2 enzyme assay (EIA kit, PGF2α readout). It is filed as biochemical. On the procedure: (§1) The ability of compounds to inhibit ovine COX-1 and human COX-2 was determined using a commercially available enzyme immunoassay (EIA) kit (catalog no. 701090 (COX-1); 701080 (COX-2) Cayman Chemical Co., Ann Arbor, Mich., USA) according to the manufacturer's protocol. COX catalyzes the first step in the biosynthesis of AA to PGH2. PGF2α, produced from PGH2 by reduction with stannous chloride, was measured by EIA (ACE™ competitive EIA, Cayman Chemical, Ann Arbor, Mich., USA). Briefly, to a series of supplied reaction buffer solutions [960 μl 0.1 M Tris-HCl (pH 8.0) containing 5 mM EDTA and 2 mM phenol] with either COX-1 or COX-2 (10 μl) enzyme in the presence of heme (10 μl), 10 μl of various concentrations of test drug solutions were added. These solutions were incubated for 15 min at 37° C. and subsequently 10 μl AA solution (100 μM) was added. The COX reaction was stopped by the addition of 30 μl stannus chloride after 2 min, mixed immediately, supernatants were 2000 fold diluted. The produced PGF2α was measured by EIA. This assay is based on the competition between PGs and a PG-acetylcholinesterase conjugate (PG tracer) for a limited amount of PG antiserum. The amount of PG tracer that is able to bind to the PG antiserum is inversely proportional to the concentration of PGs in the wells since the concentration of the PG tracer is held at a constant while the concentration of PGs varies. The specific antiserum-PG complex bound to a mouse anti-rabbit IgG that had been previously attached to the well. The plate was washed to remove any unbound reagents and 200 μl Ellman's reagent (5,5′-dithiobis-(2-nitrobenzoic acid), which contains the substrate to acetylcholine esterase, was added to the well. The product of this enzymatic reaction generates a distinct yellow color that absorbs at 406 nm. The intensity of this color, determined by spectrophotometry, is proportional to the amount of PG tracer bound to the well, which is inversely proportional to the amount of PGs present in the well during the incubation. Percent inhibition was calculated by the comparison of the compounds treated to the various control incubations.
(§2) Dose-response curves were generated using XLFit (IDBS, Surrey, UK) or Prism (GraphPad Software, La Jolla, Calif., US) to calculate IC50 values for each compound tested.

In a further assay the target is T2, COX-2 (Mus musculus, UniProt Q05769).
T2 construct: endogenous in cells; host or cells: RAW264.7 murine macrophages, stimulated with LPS and IFN-g
T2 sequence (Q05769 18-604): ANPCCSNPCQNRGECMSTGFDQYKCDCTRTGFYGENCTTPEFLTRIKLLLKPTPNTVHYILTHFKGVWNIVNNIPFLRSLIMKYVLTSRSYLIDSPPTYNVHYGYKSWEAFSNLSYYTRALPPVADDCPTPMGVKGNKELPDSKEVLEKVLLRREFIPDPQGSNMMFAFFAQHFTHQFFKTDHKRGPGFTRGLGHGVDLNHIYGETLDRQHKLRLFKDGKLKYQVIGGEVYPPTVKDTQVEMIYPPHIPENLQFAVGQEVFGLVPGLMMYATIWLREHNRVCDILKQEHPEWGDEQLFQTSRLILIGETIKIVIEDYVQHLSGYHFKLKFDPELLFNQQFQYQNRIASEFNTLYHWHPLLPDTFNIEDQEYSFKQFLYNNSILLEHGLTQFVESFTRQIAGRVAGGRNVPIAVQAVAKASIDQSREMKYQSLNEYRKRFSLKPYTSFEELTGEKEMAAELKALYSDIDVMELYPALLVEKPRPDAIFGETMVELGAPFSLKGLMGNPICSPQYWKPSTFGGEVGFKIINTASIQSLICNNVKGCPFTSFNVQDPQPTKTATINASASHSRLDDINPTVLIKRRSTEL
Put plainly: Cell-based COX-2 assay (PGE2 in LPS/IFN-g stimulated RAW264.7 cells). As to conditions: RAW264.7 murine macrophages, 1 μg/ml LPS and 10 U/ml IFN-g for 7 h, PGE2 readout. The method, then:
RAW264.7 murine macrophages were obtained from the Cell Bank of Shanghai Institute of Biochemistry and Cell Biology, Chinese Academy of Sciences (Shanghai, China) and cultured in Dulbecco's modified Eagle's medium containing 100 U/ml penicillin and 100 μg/ml streptomycin at 37° C. in 5% CO2.
RAW264.7 cells were plated at a density of 2.5×10^5/ml cells in a 96-well plate with 0.1 ml of culture medium per well and cultured overnight. The cells were pre-incubated for 30 min with various doses of compounds and stimulated for 7 h with 1 μg/ml LPS and 10 U/ml IFN-g. The cell culture supernatants were collected immediately following treatment and centrifuged at 1,000 rpm for 5 min to remove the particulate matter. PGE2 was determined using a Prostaglandin E2 assay kit (catalog no. 62P2APEB; Cisbio Co.,). 10 μL of cell supernatant was transferred to a 384-well low volume plate (e.g. Corning® 3544), 5 μL of PGE2-d2 was added, followed by 5 μL anti-PGE2 Cryptate as a negative control. Replace the standard by 10 μL of diluent and PGE2-d2 by 5 μL of reconstitution buffer, Cal0 (for positive control), replace the standard by 10 μL of diluent. Incubate at 4° C. overnight. After centrifuging at 1,000 rpm for 1 min, the dual fluorescence emissions of 615 and 665 nm with a 320 nm excitation were measured using an Envision plate reader (Perkin Elmer, Shelton, Conn.). The results are expressed as the ratio of 665 nm/615 nm emissions.
as §2

For another assay, the target named is T3, ovine COX-1 (Ovis aries, UniProt P05979).
T3 sequence (P05979 25-600): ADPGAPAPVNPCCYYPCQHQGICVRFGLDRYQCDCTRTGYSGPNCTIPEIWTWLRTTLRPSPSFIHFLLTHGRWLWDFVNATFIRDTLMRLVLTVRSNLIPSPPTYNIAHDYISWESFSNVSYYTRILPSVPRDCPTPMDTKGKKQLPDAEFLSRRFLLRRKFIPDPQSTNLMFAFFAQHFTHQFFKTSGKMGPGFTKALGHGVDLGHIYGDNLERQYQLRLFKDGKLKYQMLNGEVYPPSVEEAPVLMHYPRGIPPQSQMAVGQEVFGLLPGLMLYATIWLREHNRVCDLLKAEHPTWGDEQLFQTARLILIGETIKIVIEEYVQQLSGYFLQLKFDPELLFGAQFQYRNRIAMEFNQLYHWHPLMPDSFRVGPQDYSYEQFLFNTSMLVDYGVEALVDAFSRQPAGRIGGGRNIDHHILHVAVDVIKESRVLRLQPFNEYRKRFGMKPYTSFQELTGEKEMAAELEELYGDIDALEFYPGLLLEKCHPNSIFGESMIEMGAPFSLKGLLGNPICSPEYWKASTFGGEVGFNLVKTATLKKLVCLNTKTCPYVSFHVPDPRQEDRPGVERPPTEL
Description: biochemical. On the procedure:
as §1, §2

[1] abbreviates: human COX-2 enzyme, EIA, 15 min pre-incubation at 37° C., read-out: COX-2 IC50 (μM) enzyme.
Setting [2] is: ovine COX-1 enzyme, EIA, read-out: COX-1 IC50 (μm) enzyme.

For the compound `COc1ccc2c(c1)c(CC(=O)NCCCCCCCNC(=O)[c-]1cccc1)c(C)n2C(=O)c1ccc(Cl)cc1.[C-]#[O+].[C-]#[O+].[C-]#[O+].[Re+]` [Compound 246], the IC50 (in general, the concentration that inhibits the measured activity by half) on human COX-2 (setting [1]) is 0.1 µM; on COX-2 it was 0.2 µM; at ovine COX-1 (setting [2]), over 30 µM.

For the compound `COc1ccc2c(c1)c(CC(=O)NCCCCCC[N+]13CC[S][Re-]14(=[O])[S]CC[N]4C(=O)C3)c(C)n2C(=O)c1ccc(Cl)cc1` (stereo not drawn) [Compound 260], the IC50 is 0.3 µM at human COX-2 (setting [1]), 0.2 µM against COX-2 and over 30 µM on ovine COX-1 (setting [2]).

As to `COc1ccc2c(c1)c(CC(=O)NCCCCCC[N+]13CC[S][Re-]14(=[O])[S]CC[N]4CC3)c(C)n2C(=O)c1ccc(Cl)cc1` (stereo not drawn) [Compound 275], the IC50 at human COX-2 (setting [1]) was 0.7 µM; at COX-2, 0.2 µM; at ovine COX-1 (setting [2]), over 30 µM.

`COc1ccc2c(c1)c(CC(=O)NCCCCCCC[N+]13CC[S][Re-]14(=[O])[S]CC[N]4CC3)c(C)n2C(=O)c1ccc(Cl)cc1` (stereo not drawn) [Compound 305]: the IC50 at human COX-2 was 0.3 µM; on COX-2, 0.1 µM; against ovine COX-1, over 30 µM.

With `COc1ccc2c(c1)c(CC(=O)NCCCOCCC[N+]13CC[S][Re-]14(=[O])[S]CC[N]4CC3)c(C)n2C(=O)c1ccc(Cl)cc1` (stereo not drawn) [Compound 306], the IC50 at human COX-2 (setting [1]) was 0.7 µM; against COX-2, 0.2 µM; at ovine COX-1 (setting [2]), over 30 µM.
